# Source: patent US10023615B2, “Efficient transport into white blood cells” (priority 2008, dated 2018)
# Entries after “also recorded” stand apart in the source; their conditions may differ. Ends that are not written are not given here.
# Legend:
# [1] = system: hAPP Tg mice (APP751 London and Swedish mutations); assay: Morris Water Maze in hAPP-transgenic mice; assay type: in vivo, mouse
# Description: In order to determine the activity of the exemplary all-D retro-inverso IB(s) peptide XG-102 (SEQ ID NO: 233) in Alzheimer's disease, XG-102 (SEQ ID NO: 233) was evaluated in the hAPP-transgenic mice model overexpressing APP751 with London and Swedish mutations using the behavioral Morris Water Maze test as well as immunohistological tests measuring plaque load and ELISA tests measuring β-amyloid1-40 and β-amyloid1-42 levels in the brain of mice.
# (§1) a) METHODS • i) Introduction • The study was designed to evaluate the efficacy of the test substance (XG-102, SEQ ID NO: 233) on behavioral, biochemical and histological markers using 5 months (±2 weeks) old female hAPP Tg mice. Therefore, mice were treated every two or three weeks up to 4 months and in the end of the treatment period behavior was evaluated in the Morris Water Maze. At sacrifice brain, CSF and blood were collected. Aβ40 and Aβ42 levels were determined in four different brain homogenate fractions as well as in CSF of Tg mice. Plaque load was quantified in the cortex and the hippocampus of 8 Tg animals per treatment group.
# ii) Animals • Female Tg mice with a C57BU6xDBA background and an age of 5 months (±2 week) were randomly assigned to treatment groups 1 to 3 (n=12). […]
# [2] = system: Aβ1-40 and Aβ1-42 levels; assay: Aβ1-40 and Aβ1-42 ELISA in brain homogenate fractions and CSF of hAPP Tg mice; assay type: in vivo, mouse
# Description: as §1
# iv) Treatment • […] female hAPP transgenic mice were treated with either 0.1 mg/kg b.w./every two weeks or 10 mg/kg b.w./every three weeks of the test substance XG-102 (SEQ ID NO: 233) in two different dosages (n=12/group) or treated with the vehicle (n=12) s.c. once every three weeks over four months.
# vi) Tissue Sampling • At the end of the treatment period, and following all behavioral testing, all remaining mice (n=28) were sacrificed. Therefore, all mice were sedated by standard inhalation anesthesia (Isofluran, Baxter) as described in SOP MET030. Cerebrospinal fluid (CSF) was obtained by blunt dissection and exposure of the foramen magnum. Upon exposure, a Pasteur pipette was inserted to the approximate depth of 0.3-1 mm into the foramen magnum. CSF was collected by suctioning and capillary action until flow fully ceases. Two aliquots of each sample were immediately frozen and kept at −80° C. until ready for further analysis with ELISA technique. After CSF sampling, each mouse was placed in dorsal recumbence, thorax was opened and a 26-gauge needle attached to a 1 cc syringe was inserted into the right cardiac ventricular chamber. Light suction was applied to the needle and blood was collected into EDTA and consequently used to obtain plasma. […]
# vii) Determination of Aβ1-40 and Aβ1-42 • In four different brain homogenate fractions of each Tg mouse as well as in CSF samples the Aβ1-40 and Aβ1-42 levels were evaluated with ELISA technique. […]
substance,measurement,setting,value
dqsrpvqpflnIttprkprpprrrqrrkkrg (DQSRPVQPFLNLTTPRKPRPPRRRQRRKKRG; not fully specified (some residues); printed as dqsrpvqpflnIttprkprpprrrqrrkkrg) [XG-102],learning performance between day 1 and day 4,[1]; 0.1 mg/kg,a tendency to have worse learning performance between day 1 and day 4; also recorded: a slightly poorer learning performance between the first and the last training day
same,spatial learning in the MWM,"[1]; 0.1 mg/kg every two weeks or 10 mg/kg every three weeks s.c., four months",remained widely uninfluenced
same,Aβ1-42 levels in Triton X-100 fraction,[2]; 0.1 mg/kg,a significant reduction compared to the vehicle group; also recorded: a decrease in the Triton X-100 fraction
same,CSF Aβ1-40 and Aβ1-42 levels,[2]; 0.1 and 10 mg/kg,significantly decreased in CSF compared to vehicle group
same,brain homogenate Aβ1-40 levels,[2]; four brain homogenate fractions,did not affect brain homogenate Aβ1-40 levels
